One compound from patent US7687079B2, “Methods of treating ileus” (priority 2002, dated 2010) can be followed below.

Assay [1] concerns HO-1 mRNA. Description: Example 3 HO-1 mRNA by SYBR green real time RT-PCR. As to conditions: IM-CO mice. The format is in vivo, mouse. On the procedure:
Ileus was induced in mice by gentle manipulation of the small intestine. An incision was made to expose the abdominal cavity of the mouse, and bowel manipulation was performed by gentle poking and prodding of the small intestine (see, e.g., Schwarz et al., Gastroenterology 121(6):1354-1357 (2001)). […] Mice were exposed to CO by inhalation (250 and 500 ppm) for 1 hour immediately prior to intestinal manipulation and during the entire 24-hour recovery period. Intestinal contractility was assessed in vitro by measuring circular muscle strip contractions in response to bethanechol (0.3-300 μM) and in vivo by determining intestinal transit from the distribution of orally-fed, fluorescein-labeled dextran and calculating geometric center as described in Example 1 above. HO-1 and IL-10 mRNA expression were determined by SYBR green real time RT-PCR from extracts of muscularis extemae, as described in Example 1 above. Release of nitric oxide (NO), a potent inhibitor of smooth muscle contractility, was estimated by measuring serum total nitrite, also described in Example 1 above.
In general terms: Real-time PCR tracks product formation cycle by cycle.

For assay [2], the system named is iNOS mRNA. Description: iNOS mRNA in muscularis after IM (real time RT-PCR). The format is in vivo, mouse. As to conditions: for iNOS expression, fold increase: naive mice. On the procedure: Pro- and anti-inflammatory gene expression was determined by real time RT-PCR. The small intestinal muscularis externa was collected at 4 time points (3, 6, 12, and 24 hr) postoperatively and snap frozen in liquid nitrogen. Total RNA extraction was performed using the guanidium-thiocyanate phenol-chloroform extraction method as described in Eskandari et al. (Id.) RNA pellets were resuspended in RNA-secure resuspension solution (Ambion Inc., Austin, Tex.), followed by removal of potential contaminating DNA by treatment with DNase I (DNA-Free Kit, Ambion Inc., Austin, Tex.). Equal aliquots (5 μg) of total RNA from each sample were quantified by spectrophotometry (wavelength […]). Peak mRNA expression was quantified in duplicate by SYBR Green two-step, real-time RT-PCR. β-actin was used as the endogenous reference. Aliquoted RNA (40 ng) was subjected to first-strand complementary DNA (cDNA) synthesis using random hexamers (PE applied Biosystems, Foster City, Calif.) and Super Script II (Life Technologies, Rockville, Md.). Primers were taken from the literature or designed according to published sequences (Table 3). PCR reaction mixture was prepared using SYBR Green PCR Core Reagents (PE Applied Biosystems). Each sample was estimated in duplicate using the conditions recommended by the manufacturer. Real-time PCR data were plotted as the ΔRn fluorescence signal versus the cycle number. An arbitrary threshold was set to the midlinear portion of the log ΔRn cycle plot. The threshold cycle (CT) is defined as the cycle number at which the ΔRn, crosses this threshold. Quantification of mRNA expression was normalized to β-actin and calculated relative to control using the comparative CT method.
To exclude PCR amplification of contaminating genomic DNA, RT-negative controls (samples containing RNA which was not reverse transcribed) were included in each PCR reaction. Melting curve analyses were performed for each reaction to ensure amplification of specific product. […] PCR amplification efficiency of each target cDNA was measured by determining the colinearity of serial dilutions. […]

For assay [3], the system named is rats with ileus induced by mild manipulation of the small intestine. Description: Example 4 intestinal transit (geometric center) after IM, CO pre-treatment. It is filed as in vivo, rat. Here is the method:
Ileus was induced by mild manipulation of the small intestine (IM). Rats were exposed to decreasing concentrations of CO (250, 125, 75, 30 ppm) in air for a period of either 1 hr or 3 hr prior to laparotomy (n=6). Results were compared to those obtained using previously established protocols of exposure to CO at 250 ppm 1 hr before and for 24 hr after laparotomy. Gastrointestinal function was assessed in vivo by determining intestinal transit from the distribution throughout the GI tract of orally fed fluorescein labeled dextran. The median distribution of the labeled dextran was determined for statistical comparison by calculating the geometric center (GC).

SMILES strings stand for the structures.

Take `[C-]#[O+]` [CO, carbon monoxide]: the “HO-1 expression versus controls” value in assay [1] came to 150 fold. The “HO-1 increase in expression over IM alone” value in assay [1] (early induction) is listed as 300%. Also, the iNOS expression entry in assay [2] (naive mice exposed to CO) is on record as “no effect”. Further, the “iNOS expression, fold increase” value in assay [2] (CO 3 hr) is recorded as 1.04±0.19 fold; in assay [2] (CO 6 hr) it was 1.26±0.19 fold. Moreover, the “geometric center (GC)” value stood at 7.2±0.3 in assay [3] (IM rats, 250 ppm for 1 hr only prior to surgery); 8.6±0.3 in assay [3] (IM rats, 250 ppm pretreatment for 3 hr); 8.2±0.4 in assay [3] (IM rats, 250 ppm, 1 hr pretreatment followed by 24 hr post-treatment); 7.0±0.2 in assay [3] (IM rats, pre-treating with 30 ppm); 8.8±0.1 in assay [3] (IM rats, pre-treating with 75 ppm); 8.6±0.4 in assay [3] (IM rats, pre-treating with 125 ppm). Besides, the “geometric center (GC)” value in assay [3] (unoperated rats, 250 ppm for 24 hr) is 8.8±0.4.
